From patent publication US20070140979A1, “Method for accelerating the rate of mucociliary clearance” (BAYER AKTIENGESELLSCHAFT, priority 1998, published 2007)
Where two headings read alike, the source gives them in different places.

Columns and labels:
[1] = tested on: human bronchial epithelial cell (HBE); assay: Short circuit current (Isc) of cultured human bronchial epithelial cells in Ussing chambers; format: cell-based; conditions: for Sodium current: 70 nM
Protocol: Tertiary HBE cell monolayers grown to confluence were mounted in modified Ussing chambers, immersed in Krebs buffer (KBR) solution and bubbled with 95% 02/5% C02 warmed to 37 C.
Cells were left to equilibrate for 20 minutes before calibrating for background noise and fluid resistance. Transepithelial potential difference was then clamped to 0 mV using a WPI EVC 4000 voltage clamp. Ag/AgCl electrodes were used to monitor Isc. […] Once a response to amiloride was seen, it was washed out with KBR solution. […] 90 minutes following agent treatment, amiloride (10 uM) was added. Once the current was stable forskolin (10 uM in PBS) and then bumetanide (100 uM in PBS) was added.
Cells were left to equilibrate for 20 minutes before calibrating for background noise and fluid resistance. Transepithelial potential difference was then clamped to 0 mV using a WPI EVC 4000 voltage clamp. Ag/AgCl electrodes were used to monitor Isc. […] Once a response to amiloride was seen, it was washed out with KBR solution. […] 90 minutes following agent treatment, amiloride (10 uM) was added.

allergic sheep = conditions: cited from earlier work
guinea pig trachea = assay: Tracheal mucus velocity (TMV) in the guinea-pig; format: in vivo; conditions: 10 mM x 20 mins aerosol, 15 minutes after aerosol
Protocol: […] […] The procedure used in this Example is described in Newton et al. in “Cila, Mucus and Mucociliary Interactions,” Ed., Baum, G. L. et al., Marcel Dekker, New York, 1998; Newton et al., Ped. Pulm. S17, Abs. 364, 998).
A Bikunin formulation (50 ug/mL Bikunin (SEQ ID NO: 52) was prepared in HBBS containing 137 mM NaCl, 3 mM KC1, 3 mM KH2PO4, 8 mM Na2HPO4, 0.2% Tween-80, pH 7.1). The formulation was sterile filtered and endotoxin tested prior to use in this example. HBSS was used as a control solution. Hypnorm® (Fentanyl citrate 0.315 mg/mL and Fluanisone 10 mg/mL) was obtained from Janssen Animal Health and Hypnovel® (Midazolam 5 mg/mL) was obtained from Roche. Male Dunkin-Hartley guinea pigs (550-750 g) were supplied by David Hall, UK. Thermistor probes were obtained from Kane-May Ltd, UK. […]
TMV was monitored using a lead collimated miniature Beta particle detector probe arranged to detect the radioactivity emitted from an injected aliquot of ^32P-labelled Saccharomyces cerevisiae as it was transported on the tracheal mucociliary layer of an anaesthetized guinea pig (Newton and Hall 1998) FIG. 16(a) illustrates the arrangement of the syringe and beta probe. FIG. 16(b) illustrates the counts detected by the probe as the ^32P-labelled S.cerevisiae is transported along the tracheal mucociliary layer. […]
[…] TMV was monitored immediately and every 15 minutes for 30 minutes. […]

diseased patients = conditions: inhalation; Robinson et al 1997, App et al 1990; cited from earlier work
[2] = tested on: Xenopus kidney epithelial cells (A6 cells); conditions: exposure of the apical membrane, Vallet et al 1997, Chraibi et al 1998, cited from earlier work
human plasma kallikrein = target: T1, human plasma kallikrein (Homo sapiens, UniProt P03952); assay: Inhibition of human plasma kallikrein, Ki; format: biochemical; conditions: for Potency as inhibitor of plasma kallikrein compared with aprotinin (Trasylol), in words: in vitro
T1 construct: purchased Sigma (St. Louis, Mo.)
T1 sequence (P03952 391-638 limits assumed): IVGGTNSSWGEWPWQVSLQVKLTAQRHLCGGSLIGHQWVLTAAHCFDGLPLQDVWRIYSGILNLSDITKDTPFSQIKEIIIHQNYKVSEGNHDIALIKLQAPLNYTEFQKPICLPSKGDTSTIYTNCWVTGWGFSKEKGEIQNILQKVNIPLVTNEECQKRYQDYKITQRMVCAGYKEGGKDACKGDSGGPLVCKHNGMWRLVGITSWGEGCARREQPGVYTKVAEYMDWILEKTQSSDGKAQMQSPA
T1 sequence (P03952 20-390 partner limits assumed): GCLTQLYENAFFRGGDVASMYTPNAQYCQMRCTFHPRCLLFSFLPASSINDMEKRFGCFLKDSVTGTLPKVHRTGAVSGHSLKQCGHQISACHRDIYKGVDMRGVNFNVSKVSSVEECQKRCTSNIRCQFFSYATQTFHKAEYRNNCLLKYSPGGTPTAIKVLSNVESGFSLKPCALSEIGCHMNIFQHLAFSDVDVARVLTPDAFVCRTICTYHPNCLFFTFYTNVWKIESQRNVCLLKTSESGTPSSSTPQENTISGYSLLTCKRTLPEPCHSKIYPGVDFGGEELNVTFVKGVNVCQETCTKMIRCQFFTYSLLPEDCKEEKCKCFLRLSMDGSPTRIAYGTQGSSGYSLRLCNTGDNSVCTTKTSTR
Protocol: Proteases. Bovine trypsin, human plasmin, and bovine pancreatic kallikrein quantitation was carried out by active site titration using p-nitrophenyl p′-guanidinobenzoate HCl as previousl) described (Chase, T., and Shaw, E., (1970) Methods Enzmol. 19, 20-27). […] Human tissue kallikrein (Bayer, Germany) quantification was carried out by active site titration using p′nitrophenyl p′-guanidinobenzoate HCl as previously described (Chase, T., and Shaw, E., (1970) Methods Enzmol. 19, 20-27).
After 5 min. at 37° C., 15 μl of 2 mM GPK-AMC was added and the change in fluorescence (as above) was monitored. […] After 5 min. incubation at 37° C., 25 μl of 20 mM GPK-AMC was added and the change in fluorescence monitored. […] After 5 min. at 37° C. 15 μl of 20 mM PFR-AMC was added and the change in fluorescence monitored.

[3] = Isoelectric point by isoelectric focusing; format: physicochemical; conditions: Ampholine PAGplate pH 3.5 to 9.5, refolded purified protein
Protocol: After staining, the migration distance from the cathodic edge of the gel to the different protein bands was measured. The pI of each unknown was determined by using a standard curve generated by a plot of the migration distance of standards versus the corresponding pI's. […] (Tenstad et al., 1994, Acta Physiol. Scand. 152:33-50).

[4] = tested on: human bronchial epithelial cell (HBE); conditions: 1.5 μg.ml−1 (70 nM), normal HBE cells; McAulay et al 1998; cited from earlier work

For “Des Pro2-Ser10-Arg15-Asp24-Thr26-Glu31-Asn41-Glu53-Aprotinin [Aprotinin double mutein]”, the “Sodium short circuit current” value ([1]; 0.5 to 5 ug/mL, 90 minute period) was “dose dependently inhibited” and the “Sodium short circuit current” value ([1]; 0.5 to 5 ug/mL, 90 minute period, listed as aprotinin double mutein) was “decrease”.

In the case of “α1-PI: serpin-family serine protease inhibitor alpha(1)-protease inhibitor”, the “Effect on Na+ Isc” value ([1]; 50 μg.ml−1, normal HBE cells, further study) is listed as “without a significant effect”, the “Antigen-induced reduction in TMV” value (allergic sheep; 10 mg, 30 min before or 1 h after antigen challenge, 6 h after challenge) is listed as “attenuated” and the “Baseline TMV” value (allergic sheep; administered on its own (no antigen challenge), over a 6 h period) is listed as “no effect”. For the same molecule, the “Antigen-induced fall in TMV” value (allergic sheep; given 6 h after antigen challenge, at 24 h after challenge) was “significant reversal”.

For `N=C(N)NC(=O)c1nc(Cl)c(N)nc1N` [amiloride], the TMV after aerosol (guinea pig trachea) is listed as “statistically significant increase” and the “MCC in diseased patients” value (diseased patients) is listed as “significantly increase”.

In the case of Aprotinin, the “Sodium short circuit current” value ([1]; 5 ug/mL, FIG. 20) is listed as “decrease”, the “Transepithelial Na+ transport” value [2] is listed as “reduce” and the “Transepithelial Na+ transport” value ([2]; listed as aprotinin) is listed as “reduced”.

For `CC[C@H](C)[C@@H]1NC(=O)[C@H](Cc2ccccc2)NC(=O)[C@H](CC(N)=O)NC(=O)[C@H](CC(N)=O)NC(=O)[C@@H]2CSSC[C@@H]3NC(=O)[C@H](C)NC(=O)[C@H](CCC(=O)O)NC(=O)[C@H](CCC(=O)O)NC(=O)[C@H](CO)NC(=O)[C@H](CCCNC(=N)N)NC(=O)[C@H](Cc4ccc(O)cc4)NC(=O)[C@H](CO)NC(=O)[C@H](CC(N)=O)NC(=O)[C@H](CCCCN)NC(=O)[C@H](CC(N)=O)NC(=O)CNC(=O)[C@H](CCCNC(=N)N)NC(=O)[C@H](CSSC[C@H](NC(=O)[C@@H]4CCCN4C(=O)CNC(=O)[C@H]([C@@H](C)O)NC(=O)[C@H](C(C)C)NC(=O)[C@H](C)NC(=O)[C@H](CC(N)=O)NC(=O)[C@H](C)NC(=O)[C@H]([C@@H](C)O)NC(=O)[C@@H](NC(=O)[C@H](Cc4ccc(O)cc4)NC(=O)[C@H](CCC(=O)O)NC(=O)[C@H](CCC(=O)O)NC(=O)[C@@H](N)Cc4ccc(O)cc4)CSSC[C@@H](C(=O)N[C@@H](Cc4ccccc4)C(=O)N[C@@H](CCCNC(=N)N)C(=O)N[C@@H](CCC(N)=O)C(=O)O)NC(=O)[C@H](CCCNC(=N)N)NC(=O)[C@H](CC(C)C)NC(=O)[C@H](CCSC)NC3=O)C(=O)N[C@@H](CCCNC(=N)N)C(=O)N[C@@H](C)C(=O)N[C@@H](CO)C(=O)N[C@@H](Cc3ccccc3)C(=O)N3CCC[C@H]3C(=O)N[C@@H](CCCNC(=N)N)C(=O)N[C@@H](Cc3c[nH]c4ccccc34)C(=O)N[C@@H](Cc3ccc(O)cc3)C(=O)N[C@@H](Cc3ccccc3)C(=O)N[C@@H](CC(=O)O)C(=O)N[C@@H](C(C)C)C(=O)N[C@@H](CCC(=O)O)C(=O)N[C@@H](CCCNC(=N)N)C(=O)N[C@@H](CC(N)=O)C(=O)N[C@@H](CO)C(=O)N2)NC(=O)CNC(=O)CNC(=O)[C@H](Cc2ccc(O)cc2)NC1=O` [Bikunin (102-159)], the Ki (human plasma kallikrein; Kallikrein ([…] nM), Table 4B) was 7 nM, the “Potency as inhibitor of plasma kallikrein compared with aprotinin (Trasylol), in words” value (human plasma kallikrein) was “significantly more potent” and the pI [3] was 8.3.

B1: Bikunin: Bikunin (SEQ ID NO: 52), two Kunitz domain human homologue of bovine aprotinin, used in airway and HBE studies (protein, listed as Homo sapiens)
chain: ADRERSIHDFCLVSKVVGRCRASMPRWWYNVTDGSCQLFVYGGCDGNSNNYLTKEECLKKCATVTENATGDLATSRNAADSSVPSAPRRQDSEDHSSDMFNYEEYCTANAVTGPCRASFPRWYFDVERNSCNNFIYGGCRGNKNSYRSEEACMLRCFRQQENPPLPLGSK
With B1 the Sodium current ([1]; 90 minute period) was “decreases”, the Sodium current ([1]; 90 minute period, listed as Bukinin) was “inhibited” and the “Inhibition of Na+ Isc” value ([1]; 5 μg.ml−1, normal HBE cells, further study) was 84%. The “Sodium short circuit current” value ([1]; 5 ug/mL, FIG. 20) was “decrease” and the “Inhibition of Na+ Isc” value [4] was 54%.

B2: Recombinant Bikunin: fragment of placental bikunin containing both Kunitz domains (1-170), expressed in baculovirus/Sf9 cells (protein)
chain: ADRERSIHDFCLVSKVVGRCRASMPRWWYNVTDGSCQLFVYGGCDGNSNNYLTKEECLKKCATVTENATGDLATSRNAADSSVPSAPRRQDSEDHSSDMFNYEEYCTANAVTGPCRASFPRWYFDVERNSCNNFIYGGCRGNKNSYRSEEACMLRCFRQQENPPLPLGSK
For B2, the “Potency as inhibitor of plasma kallikrein compared with aprotinin (Trasylol), in words” value (human plasma kallikrein) was “more potent” and the “Potency as inhibitor of plasma kallikrein compared with aprotinin (Trasylol), in words” value (human plasma kallikrein; listed as bikunin(1-170)) was “significantly more potent”.
